Measured values as given in patent US10721933B2, “Pesticidally active semi-carbazones and thiosemicarbazones derivatives” (Syngenta Participations AG, priority 2015, dated 2020).

What was measured:
Spodoptera littoralis = Spodoptera littoralis (Egyptian cotton leaf worm), sprayed cotton leaf discs, L1 larvae; format: in vivo; details: foliar, 72 h, application rate of 200 ppm, 3 days after infestation, in comparison to untreated samples, read-out: control (at least one of mortality, anti-feedant effect, growth inhibition)
Description: Example B1: Spodoptera littoralis (Egyptian Cotton Leaf Worm)
Cotton leaf discs were placed on agar in 24-well microtiter plates and sprayed with aqueous test solutions prepared from 10,000 ppm DMSO stock solutions. After drying, the leaf discs were infested with five L1 larvae. The samples were assessed for mortality, anti-feedant effect, and growth inhibition in comparison to untreated samples 3 days after infestation. Control of Spodoptera littoralis by a test sample is when at least one of mortality, anti-feedant effect, and growth inhibition is higher than the untreated sample.

Diabrotica balteata = Diabrotica balteata (corn root worm), sprayed maize sprouts, L2 larvae; format: in vivo; details: 96 h, application rate of 200 ppm, 4 days after infestation, in comparison to untreated samples, read-out: effect in at least one of the two categories (mortality or growth inhibition)
Description: Example B3: Diabrotica balteata (Corn Root Worm)
Maize sprouts, placed on an agar layer in 24-well microtiter plates were treated with aqueous test solutions prepared from 10,000 ppm DMSO stock solutions by spraying. After drying, the plates were infested with L2 larvae (6 to 10 per well). The samples were assessed for mortality and growth inhibition in comparison to untreated samples 4 days after infestation.

Plutella xylostella = Plutella xylostella (diamond back moth), treated artificial diet, L2 larvae; format: in vivo; details: 120 h, application rate of 200 ppm, 5 days after infestation, in comparison to untreated samples, read-out: effect in at least one of the two categories (mortality or growth inhibition)
Description: Example B2: Plutella xylostella (Diamond Back Moth)
24-well microtiter plates with artificial diet were treated with aqueous test solutions prepared from 10,000 ppm DMSO stock solutions by pipetting. After drying, the plates were infested with L2 larvae (10 to 15 per well). The samples were assessed for mortality and growth inhibition in comparison to untreated samples 5 days after infestation.

Row | melting point [°C] | Compound | percent control (mortality, anti-feedant effect or growth inhibition) at 200 ppm (Spodoptera littoralis) [%] | percent effect (mortality or growth inhibition) at 200 ppm (Diabrotica balteata) [%] | percent effect (mortality or growth inhibition) at 200 ppm (Plutella xylostella) [%]
1 |  | CC(C)c1ccccc1NC(=S)N/N=C/c1ccc2nc(Oc3ccc(OC(F)(F)F)cc3)ccc2c1 [Compound P2, N-(2-isopropylphenyl)-2-((2-(4-(trifluoromethoxy)phenoxy)quinolin-6-yl)methylene)hydrazinecarbothioamide] | ≥ 80 | ≥ 80 | ≥ 80
2 |  | CC(C)c1ccccc1NC(=S)N/N=C/c1ccc2c(cnn2-c2ccc(OC(F)(F)F)cc2)c1 [Compound P22] |  |  | ≥ 80
3 |  | Cc1cccc(C)c1NC(=O)N/N=C/c1ccc2c(c1)nc(-c1ccc(OC(F)(F)F)cc1)n2C [Compound P27, 1-(2,6-dimethylphenyl)-3-[(E)-[1-methyl-2-[4-(trifluoromethoxy)phenyl]benzimidazol-5-yl]methyleneamino]urea] | ≥ 80 |  | 
4 |  | Cc1cccc(C)c1NC(=O)N/N=C/c1ccc2nc(-c3ccc(OC(F)(F)F)cc3)cn2c1 [Compound P18, 1-(2,6-dimethylphenyl)-3-[(E)-[2-[4-(trifluoromethoxy)phenyl]imidazo[1,2-a]pyridin-6-yl]methyleneamino]urea] | ≥ 80 |  | ≥ 80
5 |  | CC(C)c1ccccc1NC(=O)N/N=C/c1ccc2nc(-c3ccc(OC(F)(F)F)cc3)n(C)c2c1 [Compound P32] | ≥ 80 |  | ≥ 80
6 | 207 to 213 | CC(C)c1ccccc1NC(=O)N/N=C/c1ccc2c(cnn2-c2ccc(OC(F)(F)F)cc2)c1 [Compound P23] |  |  | 
7 |  | Cc1cccc(C)c1NC(=S)N/N=C/c1ccc2sc(-c3ccc(OC(F)(F)F)cc3)nc2c1 [Compound P13, 1-(2,6-dimethylphenyl)-3-[(E)-[2-[4-(trifluoromethoxy)phenyl]-1,3-benzothiazol-5-yl]methyleneamino]thiourea] |  | ≥ 80 | ≥ 80
8 |  | Cc1cccc(C)c1NC(=S)N/N=C/c1ccc2c(cnn2-c2ccc(OC(F)(F)F)cc2)c1 [Compound P21, 1-(2,6-dimethylphenyl)-3-[(E)-[1-[4-(trifluoromethoxy)phenyl]indazol-5-yl]methyleneamino]thiourea] | ≥ 80 | ≥ 80 | 
9 |  | CC(C)c1ccccc1NC(=S)N/N=C/c1ccc2cn(-c3ccc(OC(F)(F)F)cc3)nc2c1 [Compound P36] | ≥ 80 | ≥ 80 | ≥ 80
10 |  | Cc1cccc(C)c1NC(=S)N/N=C/c1ccc2cn(-c3ccc(OC(F)(F)F)cc3)nc2c1 [Compound P1, N-(2,6-dimethylphenyl)-2-((2-(4-(trifluoromethoxy)phenyl)-2H-indazol-6-yl)methylene)hydrazinecarbothioamide] | ≥ 80 | ≥ 80 | ≥ 80
11 |  | CC(C)c1ccccc1NC(=S)N/N=C/c1ccc2c(c1)nc(-c1ccc(OC(F)(F)F)cc1)n2C [Compound P33] | ≥ 80 |  | ≥ 80
12 | 218 to 219 | Cc1cccc(C)c1NC(=O)N/N=C/c1ccc2nc(-c3ccc(OC(F)(F)F)cc3)n(C)c2c1 [Compound P28, 1-(2,6-dimethylphenyl)-3-[(E)-[3-methyl-2-[4-(trifluoromethoxy)phenyl]benzimidazol-5-yl]methyleneamino]urea] |  |  | 
13 | 235 to 236 | O=C1c2ccc(/C=N/NC(=S)Nc3ccccc3C(F)(F)F)cc2C(=O)N1c1ccc(OC(F)(F)F)cc1 [Compound P11] |  |  | 
14 |  | CC(C)c1ccccc1NC(=O)N/N=C/c1ccc2nc(-c3ccc(OC(F)(F)F)cc3)cn2c1 [Compound P19] | ≥ 80 |  | ≥ 80
15 |  | Cc1cccc(C)c1NC(=S)N/N=C/c1ccc2c(c1)C(=O)N(c1ccc(OC(F)(F)F)cc1)C2=O [Compound P4, 1-(2,6-dimethylphenyl)-3-[(E)-[1,3-dioxo-2-[4-(trifluoromethoxy)phenyl]isoindolin-5-yl]methyleneamino]thiourea] |  |  | ≥ 80
16 |  | CC(C)c1ccccc1NC(=O)N/N=C/c1ccc2cn(-c3ccc(OC(F)(F)F)cc3)nc2c1 [Compound P35] | ≥ 80 | ≥ 80 | ≥ 80
17 | 227 to 233 | Cc1cccc(C)c1NC(=O)N/N=C/c1ccc2c(cnn2-c2ccc(OC(F)(F)F)cc2)c1 [Compound P24, 1-(2,6-dimethylphenyl)-3-[(E)-[1-[4-(trifluoromethoxy)phenyl]indazol-5-yl]methyleneamino]urea] |  |  | 
18 | 239 to 240 | CC(C)c1ccccc1NC(=O)N/N=C/c1ccc2c(c1)C(=O)N(c1ccc(OC(F)(F)F)cc1)C2=O [Compound P6] |  |  | 
19 |  | Cc1cccc(C)c1NC(=S)N/N=C/c1ccc2nc(-c3ccc(OC(F)(F)F)cc3)n(C)c2c1 [Compound P30] |  |  | ≥ 80
20 |  | Cc1cccc(C)c1NC(=S)N/N=C/c1ccc2nc(-c3ccc(OC(F)(F)F)cc3)cn2c1 [Compound P17, 1-(2,6-dimethylphenyl)-3-[(E)-[2-[4-(trifluoromethoxy)phenyl]imidazo[1,2-a]pyridin-6-yl]methyleneamino]thiourea] | ≥ 80 | ≥ 80 | ≥ 80
21 |  | Cc1cccc(C)c1NC(=S)N/N=C/c1ccc2c(c1)nc(-c1ccc(OC(F)(F)F)cc1)n2C [Compound P29] | ≥ 80 | ≥ 80 | ≥ 80
22 |  | CC(C)c1ccccc1NC(=O)N/N=C/c1ccc2c(c1)nc(-c1ccc(OC(F)(F)F)cc1)n2C [Compound P31] | ≥ 80 |  | ≥ 80
23 |  | CC(C)c1ccccc1NC(=O)N/N=C/c1ccc2sc(-c3ccc(OC(F)(F)F)cc3)nc2c1 [Compound P15] |  | ≥ 80 | ≥ 80
24 | 225 to 234 | Cc1cccc(C)c1NC(=S)N/N=C/c1ccc2nn(-c3ccc(OC(F)(F)F)cc3)cc2c1 [Compound P25, 1-(2,6-dimethylphenyl)-3-[(E)-[2-[4-(trifluoromethoxy)phenyl]indazol-5-yl]methyleneamino]thiourea] |  |  | 
25 |  | CC(C)c1ccccc1NC(=S)N/N=C/c1ccc2nc(-c3ccc(OC(F)(F)F)cc3)n(C)c2c1 [Compound P34] | ≥ 80 |  | ≥ 80
26 |  | CC(C)c1ccccc1NC(=S)N/N=C/c1ccc2sc(-c3ccc(OC(F)(F)F)cc3)nc2c1 [Compound P14] |  | ≥ 80 | ≥ 80
27 |  | CC(C)c1ccccc1NC(=S)N/N=C/c1ccc2c(c1)C(=O)N(c1ccc(OC(F)(F)F)cc1)C2=O [Compound P12] |  |  | ≥ 80
